Experimental findings from paper PMC8125603, “Species-Specific Regulation of TRPM2 by PI(4,5)P2 via the Membrane Interfacial Cavity” (International Journal of Molecular Sciences, 2021) are described below.

Structures are written as SMILES.

Assay [1] has as its target T1, hsTRPM2 (Homo sapiens, UniProt O94759).
T1 construct: gene TRPM2; full-length wild-type cDNA in modified pIRES-hrGFP-2a, transient in HEK-293 cells; homotetramer; inside-out patches (C-terminal 3xHA tag only for surface expression tests)
Put plainly: inside-out patch clamp, HEK-293 cells, -60 mV, dose-response of current activation. It is filed as biochemical. A general note: The patch-clamp technique gives a direct electrical read-out from membranes.

In assay [2] the target is T2, nvTRPM2 (Nematostella vectensis, UniProt A7T1N0).
T2 construct: gene TRPM2; full-length wild-type cDNA in modified pIRES-hrGFP-2a, transient in HEK-293 cells; homotetramer; inside-out patches (C-terminal 3xHA tag only for surface expression tests)
T2 sequence (A7T1N0 whole entry): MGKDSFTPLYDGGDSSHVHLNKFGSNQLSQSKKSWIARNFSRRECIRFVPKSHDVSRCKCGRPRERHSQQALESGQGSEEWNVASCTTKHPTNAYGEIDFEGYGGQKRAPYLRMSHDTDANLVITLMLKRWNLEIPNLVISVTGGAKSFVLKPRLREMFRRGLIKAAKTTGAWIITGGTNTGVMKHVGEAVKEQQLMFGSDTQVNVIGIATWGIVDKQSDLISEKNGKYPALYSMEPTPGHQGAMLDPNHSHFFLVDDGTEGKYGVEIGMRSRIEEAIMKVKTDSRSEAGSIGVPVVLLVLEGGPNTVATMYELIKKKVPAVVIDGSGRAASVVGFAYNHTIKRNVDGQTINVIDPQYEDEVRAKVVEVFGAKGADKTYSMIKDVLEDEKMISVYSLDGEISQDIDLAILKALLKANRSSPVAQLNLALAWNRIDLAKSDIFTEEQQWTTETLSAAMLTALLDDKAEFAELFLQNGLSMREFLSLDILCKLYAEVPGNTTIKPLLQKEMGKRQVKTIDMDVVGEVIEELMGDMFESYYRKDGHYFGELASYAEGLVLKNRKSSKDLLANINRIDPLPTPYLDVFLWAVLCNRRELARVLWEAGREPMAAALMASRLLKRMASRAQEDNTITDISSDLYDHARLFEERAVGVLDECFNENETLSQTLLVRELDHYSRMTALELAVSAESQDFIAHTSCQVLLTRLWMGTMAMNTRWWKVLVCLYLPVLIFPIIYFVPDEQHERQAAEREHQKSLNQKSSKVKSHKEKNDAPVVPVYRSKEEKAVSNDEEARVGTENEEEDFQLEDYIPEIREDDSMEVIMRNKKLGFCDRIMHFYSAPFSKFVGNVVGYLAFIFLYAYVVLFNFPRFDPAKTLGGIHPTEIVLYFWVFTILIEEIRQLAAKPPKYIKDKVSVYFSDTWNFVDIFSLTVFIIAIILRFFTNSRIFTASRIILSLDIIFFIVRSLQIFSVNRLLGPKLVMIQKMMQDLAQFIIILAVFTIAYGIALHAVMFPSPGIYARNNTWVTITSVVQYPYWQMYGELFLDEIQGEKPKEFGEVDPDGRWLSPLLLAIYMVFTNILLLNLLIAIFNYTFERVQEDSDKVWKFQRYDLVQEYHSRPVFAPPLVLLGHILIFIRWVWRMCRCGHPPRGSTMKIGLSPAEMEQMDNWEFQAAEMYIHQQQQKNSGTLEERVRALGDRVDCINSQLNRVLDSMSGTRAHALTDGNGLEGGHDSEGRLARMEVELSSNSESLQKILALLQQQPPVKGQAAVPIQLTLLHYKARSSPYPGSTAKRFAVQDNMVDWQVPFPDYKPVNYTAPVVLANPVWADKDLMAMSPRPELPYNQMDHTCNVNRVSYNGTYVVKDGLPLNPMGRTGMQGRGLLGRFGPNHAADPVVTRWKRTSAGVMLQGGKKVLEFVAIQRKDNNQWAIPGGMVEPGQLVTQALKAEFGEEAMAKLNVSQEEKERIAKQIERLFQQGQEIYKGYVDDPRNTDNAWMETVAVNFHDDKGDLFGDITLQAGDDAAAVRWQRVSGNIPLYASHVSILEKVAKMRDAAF
Described as above. Format: biochemical.

T1 sequence (O94759 whole entry): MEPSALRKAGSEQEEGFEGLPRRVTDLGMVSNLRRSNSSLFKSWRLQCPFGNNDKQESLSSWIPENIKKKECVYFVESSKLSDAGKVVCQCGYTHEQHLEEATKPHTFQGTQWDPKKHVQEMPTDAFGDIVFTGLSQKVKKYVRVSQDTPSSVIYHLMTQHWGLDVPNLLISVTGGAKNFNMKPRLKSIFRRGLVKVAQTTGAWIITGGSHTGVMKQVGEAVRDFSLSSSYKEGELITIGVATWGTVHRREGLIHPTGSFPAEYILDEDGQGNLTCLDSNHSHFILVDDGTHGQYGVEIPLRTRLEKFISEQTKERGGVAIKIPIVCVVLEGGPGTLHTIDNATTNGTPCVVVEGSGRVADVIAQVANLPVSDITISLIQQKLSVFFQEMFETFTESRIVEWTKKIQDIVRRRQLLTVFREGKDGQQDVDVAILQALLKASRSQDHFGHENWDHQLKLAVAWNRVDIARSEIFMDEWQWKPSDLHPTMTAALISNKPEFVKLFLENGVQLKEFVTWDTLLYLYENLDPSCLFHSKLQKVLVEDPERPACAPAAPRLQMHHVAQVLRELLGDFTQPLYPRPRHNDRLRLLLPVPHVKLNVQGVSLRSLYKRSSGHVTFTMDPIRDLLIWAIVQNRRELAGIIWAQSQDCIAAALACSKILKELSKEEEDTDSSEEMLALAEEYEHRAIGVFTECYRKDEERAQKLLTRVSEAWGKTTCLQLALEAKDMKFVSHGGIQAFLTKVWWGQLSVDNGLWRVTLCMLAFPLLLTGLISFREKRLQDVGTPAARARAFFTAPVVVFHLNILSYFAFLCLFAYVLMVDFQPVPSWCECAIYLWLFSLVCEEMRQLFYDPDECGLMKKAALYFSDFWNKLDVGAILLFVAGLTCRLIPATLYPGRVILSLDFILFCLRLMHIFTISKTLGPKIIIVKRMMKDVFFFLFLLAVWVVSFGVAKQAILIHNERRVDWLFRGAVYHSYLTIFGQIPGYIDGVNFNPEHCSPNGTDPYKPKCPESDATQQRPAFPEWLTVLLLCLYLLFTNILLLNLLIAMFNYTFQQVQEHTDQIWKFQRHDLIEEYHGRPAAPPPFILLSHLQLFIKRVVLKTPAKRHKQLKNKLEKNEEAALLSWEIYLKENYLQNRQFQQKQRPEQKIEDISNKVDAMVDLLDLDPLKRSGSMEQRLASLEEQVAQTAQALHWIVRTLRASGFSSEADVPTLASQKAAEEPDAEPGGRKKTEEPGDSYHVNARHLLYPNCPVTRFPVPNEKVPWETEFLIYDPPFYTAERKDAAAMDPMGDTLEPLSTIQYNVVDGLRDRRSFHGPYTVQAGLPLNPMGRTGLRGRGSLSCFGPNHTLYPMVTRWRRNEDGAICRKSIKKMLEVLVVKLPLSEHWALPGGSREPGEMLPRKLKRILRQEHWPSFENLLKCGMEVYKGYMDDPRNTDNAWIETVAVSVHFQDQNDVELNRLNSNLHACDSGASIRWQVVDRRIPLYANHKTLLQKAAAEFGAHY

As a reminder, the EC50 is the midpoint of the concentration-response curve. Consider `CCCCCCCC(=O)OC[C@H](COP(=O)(O)O[C@@H]1[C@H](O)[C@H](O)[C@@H](OP(=O)(O)O)[C@H](OP(=O)(O)O)[C@H]1O)OC(=O)CCCCCCC` [PIP2], for which the EC50 in assay [1] was 11.9 ± 1.1 µM; in assay [2], 2.1 ± 0.2 µM.
